{"source": "paper PMC9600270", "about": "(Cancers, 2022)", "origin": "cited, not measured here", "key": {"RMS cells": {"system": "RMS cells", "conditions": "TmR-targeted vincristine-loaded liposomes", "from_the_text": "We previously selected RMS-targeting peptides by in vitro and in vivo phage display and tested them for their potential to increase vincristine-loaded liposomes’ accumulation in RMS mouse xenografts. […] We hypothesized that a targeting peptide with a stronger binding to RMS might be needed to achieve increased accumulation in RMS tumors in vivo. Here, we selected from the literature peptides binding to receptors k ... || We previously tested the peptide TmR for its potential to increase vincristine-loaded liposomes’ accumulation in RMS mouse xenografts. […] Here, we aimed at selecting a peptide with stronger binding to RMS cells than TmR, and F3 peptide bound to the four RMS cell lines tested 3- to 5-fold more than TmR peptide. Importantly, F3 pe ..."}, "RMS mouse xenografts": {"system": "RMS mouse xenografts", "parameters": "method as in PMID 28447920", "conditions": "TmR-targeted vincristine-loaded liposomes"}}, "note": "“And” between values parts separate entries of the source, which are not always exact repeats. Equal entries are not always repeated. Bridges are numbered along the chain shown (N, C = ends). Where no end group is shown, it is not given here."}
{"sequence": "KRDRGGGCMGTINTRTRRC (disulfide 8-19 (inferred)) [TmR, Furin-targeting RMS peptide, modified version of RMS-P3]", "values": [{"measurement": "Increase of RMS binding of liposomes in vitro", "setting": "RMS cells", "result": "5.4 fold and 5 fold"}, {"measurement": "Tumor accumulation in vivo compared to non-targeted liposomes", "setting": "RMS mouse xenografts", "result": "did not further increase"}]}
